Measured values as given in ChEMBL document CHEMBL1201862, “PubChem BioAssay data set” (2004).
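Where inhibition never reached the appropriate level, the endpoint shown equals the highest concentration tested. Otherwise, values were interpolated linearly from a five-concentration, 48-hour dose response in 96-well plates. Here, GI50 denotes the concentration required for 50% inhibition of growth.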 The source made the active and inactive calls. Rule as the data show it: active = GI50 up to about 1.1 µM and inactive = higher.

Columns and labels:
Assay in all cases: NCI tumour cell line growth inhibition, 48 h
HCT-15 = test system: HCT-15
COLO 205 = test system: COLO 205
TK-10 = test system: TK-10
DLD-1 = test system: DLD-1
RXF 631 = test system: RXF 631
U-251 = test system: U-251
DMS-114 = test system: DMS-114
SNB-75 = test system: SNB-75
Malme-3M = test system: Malme-3M
EKVX = test system: EKVX
DMS-273 = test system: DMS-273
HT-29 = test system: HT-29
RXF 393 = test system: RXF 393
LOX IMVI = test system: LOX IMVI
XF498 = test system: XF498
RPMI-8226 = test system: RPMI-8226
KM-20L2 = test system: KM-20L2
UO-31 = test system: UO-31
HOP-92 = test system: HOP-92
NCI-H460 = test system: NCI-H460
LXFL 529 = test system: LXFL 529
SF-295 = test system: SF-295
UACC-62 = test system: UACC-62
HCC 2998 = test system: HCC 2998
SW-620 = test system: SW-620
SNB-19 = test system: SNB-19
CCRF-CEM = test system: CCRF-CEM
OVCAR-4 = test system: OVCAR-4
NCI-H226 = test system: NCI-H226
786-0 = test system: 786-0
K562 = test system: K562
SK-OV-3 = test system: SK-OV-3
A549 = test system: A549
HL-60 = test system: HL-60
HOP-18 = test system: HOP-18
SK-MEL-2 = test system: SK-MEL-2
SF-268 = test system: SF-268
HOP-62 = test system: HOP-62
SR = test system: SR
ACHN = test system: ACHN
SK-MEL-28 = test system: SK-MEL-28
SNB-78 = test system: SNB-78
UACC-257 = test system: UACC-257
A498 = test system: A498
SK-MEL-5 = test system: SK-MEL-5
OVCAR-3 = test system: OVCAR-3
M19-MEL = test system: M19-MEL
M14 = test system: M14
MOLT-4 = test system: MOLT-4
NCI-H23 = test system: NCI-H23
IGROV-1 = test system: IGROV-1
SN12C = test system: SN12C
OVCAR-8 = test system: OVCAR-8
SF-539 = test system: SF-539
OVCAR-5 = test system: OVCAR-5
HCT-116 = test system: HCT-116

CN(C)CCN(C)C(=O)c1cccc2cccc(C(=O)O)c12
GI50 (HCT-15): > 100 µM | GI50 (COLO 205): > 100 µM (inactive) | GI50 (TK-10): > 100 µM (inactive) | GI50 (DLD-1): > 100 µM (inactive) | GI50 (RXF 631): > 100 µM (inactive) | GI50 (U-251): > 100 µM (inactive) | GI50 (DMS-114): > 100 µM (inactive) | GI50 (SNB-75): > 100 µM (inactive) | GI50 (Malme-3M): > 100 µM (inactive) | GI50 (EKVX): > 100 µM (inactive) | GI50 (DMS-273): > 100 µM (inactive) | GI50 (HT-29): > 100 µM (inactive) | GI50 (RXF 393): > 100 µM (inactive) | GI50 (LOX IMVI): > 100 µM (inactive) | GI50 (XF498): > 100 µM (inactive) | GI50 (RPMI-8226): > 100 µM (inactive) | GI50 (KM-20L2): > 100 µM (inactive) | GI50 (UO-31): > 100 µM (inactive) | GI50 (HOP-92): > 100 µM (inactive) | GI50 (NCI-H460): > 100 µM (inactive) | GI50 (LXFL 529): > 100 µM (inactive) | GI50 (SF-295): > 100 µM (inactive) | GI50 (UACC-62): > 100 µM (inactive) | GI50 (HCC 2998): > 100 µM (inactive) | GI50 (SW-620): > 100 µM (inactive) | GI50 (SNB-19): > 100 µM (inactive) | GI50 (CCRF-CEM): > 100 µM (inactive) | GI50 (OVCAR-4): > 100 µM (inactive) | GI50 (NCI-H226): > 100 µM (inactive) | GI50 (786-0): > 100 µM (inactive) | GI50 (K562): > 100 µM (inactive) | GI50 (SK-OV-3): > 100 µM (inactive) | GI50 (A549): > 100 µM (inactive) | GI50 (HL-60): > 100 µM (inactive) | GI50 (HOP-18): > 100 µM (inactive) | GI50 (SK-MEL-2): 0.723 µM (active) | GI50 (SF-268): > 100 µM (inactive) | GI50 (HOP-62): > 100 µM (inactive) | GI50 (SR): > 100 µM (inactive) | GI50 (ACHN): > 100 µM (inactive) | GI50 (SK-MEL-28): > 100 µM (inactive) | GI50 (SNB-78): > 100 µM (inactive) | GI50 (UACC-257): > 100 µM (inactive) | GI50 (A498): > 100 µM (inactive) | GI50 (SK-MEL-5): > 100 µM (inactive) | GI50 (OVCAR-3): > 100 µM (inactive) | GI50 (M19-MEL): > 100 µM (inactive) | GI50 (M14): > 100 µM (inactive) | GI50 (MOLT-4): > 100 µM (inactive) | GI50 (NCI-H23): > 100 µM (inactive) | GI50 (IGROV-1): > 100 µM (inactive) | GI50 (SN12C): > 100 µM (inactive) | GI50 (OVCAR-8): > 100 µM (inactive) | GI50 (SF-539): > 100 µM (inactive) | GI50 (OVCAR-5): > 100 µM (inactive) | GI50 (HCT-116): > 100 µM (inactive)
